Reference: ChEMBL document CHEMBL1250481, “Isoxazole analogs of curcuminoids with highly potent multidrug-resistant antimycobacterial activity” (2010)
Converted amounts (≈) assume the structure as drawn.

Tests used:
Type in all cases: functional
[1] = tested on: Mycobacterium tuberculosis; assay: Antimycobacterial activity against isoniazid, rifampin and streptomycin-resistant Mycobacterium tuberculosis M3 after 24 hrs by microtiter alamar blue assay; settings: M3, 24 h
[2] = tested on: Mycobacterium tuberculosis; assay: Antimycobacterial activity against isoniazid, rifampin, ethambutol and streptomycin-resistant Mycobacterium tuberculosis M4 after 24 hrs by microtiter alamar blue assay; settings: M4, 24 h
[3] = tested on: Mycobacterium tuberculosis; assay: Antimycobacterial activity against isoniazid, rifampin and streptomycin-resistant Mycobacterium tuberculosis M5 after 24 hrs by microtiter alamar blue assay; settings: M5, 24 h
[4] = tested on: Mycobacterium tuberculosis; assay: Antimycobacterial activity against isoniazid and rifampin-resistant Mycobacterium tuberculosis M6 after 24 hrs by microtiter alamar blue assay; settings: M6, 24 h
[5] = tested on: Mycobacterium tuberculosis; assay: Antimycobacterial activity against isoniazid, rifampin, ethambutol and streptomycin-resistant Mycobacterium tuberculosis M8 after 24 hrs by microtiter alamar blue assay; settings: M8, 24 h
[6] = tested on: Mycobacterium tuberculosis; assay: Antimycobacterial activity against isoniazid and rifampin-resistant Mycobacterium tuberculosis M11 after 24 hrs by microtiter alamar blue assay; settings: M11, 24 h
[7] = tested on: Mycobacterium tuberculosis; assay: Antimycobacterial activity against isoniazid, rifampin and ethambutol-resistant Mycobacterium tuberculosis M16 after 24 hrs by microtiter alamar blue assay; settings: M16, 24 h
[8] = tested on: Mycobacterium tuberculosis; assay: Antimycobacterial activity against isoniazid, rifampin, ethambutol and streptomycin-resistant Mycobacterium tuberculosis M21 after 24 hrs by microtiter alamar blue assay; settings: M21, 24 h
[9] = tested on: Mycobacterium tuberculosis; assay: Antimycobacterial activity against isoniazid and rifampin -resistant Mycobacterium tuberculosis M22 after 24 hrs by microtiter alamar blue assay; settings: M22, 24 h
[10] = tested on: Mycobacterium tuberculosis; assay: Antimycobacterial activity against isoniazid and rifampin -resistant Mycobacterium tuberculosis M27 after 24 hrs by microtiter alamar blue assay; settings: M27, 24 h
[11] = tested on: Mycobacterium tuberculosis; assay: Antimycobacterial activity against isoniazid, rifampin, ethambutol, streptomycin, ofloxacin and ciprofloxacin-resistant Mycobacterium tuberculosis M46 after 24 hrs by microtiter alamar blue assay; settings: M46, 24 h
[12] = tested on: Mycobacterium tuberculosis; assay: Antimycobacterial activity against isoniazid, rifampin, ethambutol, streptomycin, ofloxacin and ciprofloxacin-resistant Mycobacterium tuberculosis M48 after 24 hrs by microtiter alamar blue assay; settings: M48, 24 h
[13] = tested on: Mycobacterium tuberculosis; assay: Antimycobacterial activity against isoniazid, rifampin, ethambutol, streptomycin, ofloxacin and ciprofloxacin-resistant Mycobacterium tuberculosis M53 after 24 hrs by microtiter alamar blue assay; settings: M53, 24 h

SMILES	MIC [1]	MIC [2]	MIC [3]	MIC [4]	MIC [5]	MIC [6]	MIC [7]	MIC [8]	MIC [9]	MIC [10]	MIC [11]	MIC [12]	MIC [13]
COc1cc(/C=C/c2cc(/C=C/c3ccc(OC)c(OC)c3)on2)ccc1O	0.78 µg/mL (≈ 2.06 µM)	6.25 µg/mL (≈ 16.5 µM)	12.5 µg/mL (≈ 32.9 µM)	1.56 µg/mL (≈ 4.11 µM)	12.5 µg/mL (≈ 32.9 µM)	12.5 µg/mL (≈ 32.9 µM)	12.5 µg/mL (≈ 32.9 µM)	12.5 µg/mL (≈ 32.9 µM)	1.56 µg/mL (≈ 4.11 µM)	0.78 µg/mL (≈ 2.06 µM)	6.25 µg/mL (≈ 16.5 µM)	12.5 µg/mL (≈ 32.9 µM)	12.5 µg/mL (≈ 32.9 µM)
CCCCCOc1ccc(/C=C/c2cc(/C=C/c3ccc(O)c(OC)c3)no2)cc1OC	1.56 µg/mL (≈ 3.58 µM)	1.56 µg/mL (≈ 3.58 µM)	1.56 µg/mL (≈ 3.58 µM)	3.12 µg/mL (≈ 7.18 µM)	6.25 µg/mL (≈ 14.4 µM)	6.25 µg/mL (≈ 14.4 µM)	1.56 µg/mL (≈ 3.58 µM)	6.25 µg/mL (≈ 14.4 µM)	6.25 µg/mL (≈ 14.4 µM)	1.56 µg/mL (≈ 3.58 µM)	1.56 µg/mL (≈ 3.58 µM)	3.12 µg/mL (≈ 7.18 µM)	3.12 µg/mL (≈ 7.18 µM)
COc1cc(/C=C/c2cc(/C=C/c3ccc(OC)c(OC)c3)no2)ccc1O	0.195 µg/mL (≈ 0.514 µM)	1.56 µg/mL (≈ 4.11 µM)	3.12 µg/mL (≈ 8.24 µM)	0.39 µg/mL (≈ 1.03 µM)	3.12 µg/mL (≈ 8.24 µM)	3.12 µg/mL (≈ 8.24 µM)	1.56 µg/mL (≈ 4.11 µM)	3.12 µg/mL (≈ 8.24 µM)	0.39 µg/mL (≈ 1.03 µM)	0.195 µg/mL (≈ 0.514 µM)	1.56 µg/mL (≈ 4.11 µM)	1.56 µg/mL (≈ 4.11 µM)	3.12 µg/mL (≈ 8.24 µM)
CCCCCOc1ccc(/C=C/c2cc(/C=C/c3ccc(O)c(OC)c3)on2)cc1OC	0.39 µg/mL (≈ 0.895 µM)	1.56 µg/mL (≈ 3.58 µM)	1.56 µg/mL (≈ 3.58 µM)	0.78 µg/mL (≈ 1.79 µM)	3.12 µg/mL (≈ 7.18 µM)	3.12 µg/mL (≈ 7.18 µM)	1.25 µg/mL (≈ 2.87 µM)	3.12 µg/mL (≈ 7.18 µM)	0.78 µg/mL (≈ 1.79 µM)	0.39 µg/mL (≈ 0.895 µM)	1.56 µg/mL (≈ 3.58 µM)	3.12 µg/mL (≈ 7.18 µM)	3.12 µg/mL (≈ 7.18 µM)
